Source: patent publication US20220041681A1 (MEDIMMUNE LIMITED, priority 2016, published 2022)

Columns and labels:
[1] = test system: diet induced obesity (DIO) mouse model; assay: Diet induced obesity (DIO) mouse model, study B; type: in vivo; details: for FGF 21 / HOMA / Hepatic TG / Plasma Cholesterol / Plasma NEFA / Plasma TG: day 14; for Glucose / Insulin: day 14, 4-hour fasting
Description: The body weight of the animals was monitored daily throughout the dosing period. At day 14, blood samples for the measurement of plasma glucose and insulin from conscious mice were obtained after a 4-hour fasting period. Mice were then anaesthetized using isoflourane and terminal blood was collected from the capillary bed behind the eye. The following parameters were measured: blood chemistry measurements of triglycerides, total cholesterol, non-esterified fatty acids (NEFA), beta-hydroxybutyrate and fibroblast growth factor 21 (FGF21) (Table 16 and Table 17 below).

[2] = test system: overweight or obese subjects with type 2 diabetes mellitus (T2DM); assay: Multiple-ascending dose study Part II (Cohorts 5 and 6); type: in vivo, human; details: for Fasting Glucose (change) / Glucose AUG (change) / Weight (change): n = 12 active
Description: A randomized, double-blind, multiple-ascending dose study is performed. This study consists of 2 cohorts: cohort 5 and cohort 6.
The study consists of an inpatient up-titration evaluation period beginning on Day 3 for both Cohorts 5 and 6 and an outpatient follow-up period. The first 4 days and the final day of dosing at 300 μg are inpatient.
Subjects have a second inpatient period for the initiation of the 300 μg dose ending on the fourth day at that dose followed by at-home self administration.
Additional time points include before commencing the 300 μg dose (Day 16 for Cohort 5 and Day 11 for Cohort 6), and at the end of dosing (Day 22 for Cohort 5 and Day 17 for Cohort 6).

[3] = test system: overweight or obese subjects with type 2 diabetes mellitus (T2DM); details: human, in vivo
Description: A Phase 1/2, randomized, double-blind, multiple-ascending dose study is performed in two parts (A and B).
Part A consists of 3 cohorts.
Part B consists of 1 cohort.
The initial dose is 100 μg. […] The study duration for each subject varies by cohort and consists of an inpatient multiple-ascending dose (MAD) or up-titration evaluation period (beginning on Day −2 and ending after Day 8 for Cohort 1, Day 12 for Cohort 2, Day 16 for Cohort 3, and Day 13 for Cohort 4) and an outpatient follow-up period.
The subject remains in the facility for observation and safety tests including ECGs, telemetry, monitoring of vital signs, and assessments of the injection site for potential reactions throughout the day and during the treatment period.
Mixed-meal test (MMT) procedures are performed on Day −1 and on the last day of the highest dose level achieved for all cohorts. […] For the MMT, the subject consumes a standardized meal (Ensure Plus %) within 5 minutes, and timed serial blood samples are obtained for measurement of glucose and parameters related to glucose metabolism just before and through 240 minutes after consumption of the standandized meal. During the inpatient period, finger prick glucose samples are collected 15 minutes prior to and 2 hours after breakfast, mid-day, and evening meals, and prior to going to bed.
Cohort 4 subjects are re-admitted for an overnight inpatient stay at the end of the at-home self-administration period to collect the final endpoints.
Subjects are discharged from the unit the day after the final dose is administered in the study.
Missing measurements at the end of treatment are replaced with the last available measurement. The comparison is conducted at a two-sided significance level of 0.1.

[4] = Phase 1 single-ascending dose study; details: human, plasma, subcutaneous, 300 μg

CCCCCCCCCCCCCCCC(=O)N[C@@H](CCC(=O)NCCCC[C@H](NC(=O)[C@H](CC(=O)O)NC(=O)[C@H](CO)NC(=O)C(NC(=O)[C@H](Cc1ccccc1)NC(=O)C(NC(=O)CNC(=O)[C@H](CCC(N)=O)NC(=O)[C@H](CO)NC(=O)[C@@H](N)Cc1cnc[nH]1)[C@@H](C)O)[C@@H](C)O)C(=O)N[C@@H](CO)C(=O)N[C@@H](CCC(=O)O)C(=O)N[C@@H](Cc1ccc(O)cc1)C(=O)N[C@@H](CC(C)C)C(=O)N[C@@H](CC(=O)O)C(=O)N[C@@H](CO)C(=O)N[C@@H](CCC(=O)O)C(=O)N[C@@H](CCCNC(=N)N)C(=O)N[C@@H](C)C(=O)N[C@@H](CCCNC(=N)N)C(=O)N[C@@H](CC(=O)O)C(=O)N[C@@H](Cc1ccccc1)C(=O)N[C@H](C(=O)N[C@@H](C)C(=O)N[C@@H](Cc1c[nH]c2ccccc12)C(=O)N[C@@H](CC(C)C)C(=O)N[C@@H](CCC(=O)O)C(=O)N[C@@H](C)C(=O)NCC(=O)NCC(=O)O)C(C)C)C(=O)O (stereo partly drawn) [Peptide G933]
BW day 14 (% change of vehicle mean) ([1]; 5 nmol/kg sc twice daily for 14 days): −11% | FGF 21 ([1]; 5 nmol/kg sc twice daily): 2682 pg/mL | HOMA ([1]; 5 nmol/kg sc twice daily): 3.31 | Hepatic TG ([1]; 5 nmol/kg sc twice daily): 19.3 g TG/100 g tissue | Plasma Cholesterol ([1]; 5 nmol/kg sc twice daily): 2.88 mM | Plasma NEFA ([1]; 5 nmol/kg sc twice daily): 0.28 mM | Plasma TG ([1]; 5 nmol/kg sc twice daily): 0.89 mM | Glucose ([1]; 5 nmol/kg sc twice daily): 6.2 mM | Insulin ([1]; 5 nmol/kg sc twice daily): 0.53 nM | BW day 14 (% change of vehicle mean) ([1]; 10 nmol/kg sc twice daily for 14 days): −19% | FGF 21 ([1]; 10 nmol/kg sc twice daily): 4459 pg/mL | HOMA ([1]; 10 nmol/kg sc twice daily): 1.98 | Hepatic TG ([1]; 10 nmol/kg sc twice daily): 14.7 g TG/100 g tissue | Plasma Cholesterol ([1]; 10 nmol/kg sc twice daily): 2.32 mM | Plasma NEFA ([1]; 10 nmol/kg sc twice daily): 0.27 mM | Plasma TG ([1]; 10 nmol/kg sc twice daily): 0.16 mM | Glucose ([1]; 10 nmol/kg sc twice daily): 7.2 mM | Insulin ([1]; 10 nmol/kg sc twice daily): 0.27 nM | body weight over the 14 day dosing period ([1]; study B, in words): dose dependent and continuous weight loss | glucose AUC reduction ([2]; Cohort 5 (100/150/200/300 μg, 22 days)): 41.7% | Fasting Glucose (change) ([2]; Cohort 5, 300 ug): -24.40 mg/dL | Glucose AUG (change) ([2]; Cohort 5, 300 ug): −33.7 | Weight (change) ([2]; Cohort 5, 300 ug, difference to placebo after 22 days): -2.11 kg | weight loss difference vs placebo ([2]; Cohort 5, 22 days): 2.11 kg | heart rate increase from baseline ([2]; Cohort 5, 22 days administration): approximately 7.6 BPM | weight lost ([2]; Cohort 5, after 22 days): about 3.09 kg | glucose AUC reduction ([2]; Cohort 6 (100/200/300 μg, 17 days)): 35.8% | Fasting Glucose (change) ([2]; Cohort 6, 300 ug): -36.94 mg/dL | Glucose AUG (change) ([2]; Cohort 6, 300 ug): −28.9 | Weight (change) ([2]; Cohort 6, 300 ug, difference to placebo after 17 days): -1.88 kg | patients who vomited ([2]; Cohort 6, 1 patient): 8.3% | weight loss difference vs placebo ([2]; Cohort 6, 17 days): 1.88 kg | heart rate increase from baseline ([2]; Cohort 6, 17 days administration): approximately 5.9 BPM | weight lost ([2]; Cohort 6, after 17 days): about 2.23 kg | deaths or serious adverse events ([2]; Cohorts 5 and 6): No deaths or serious adverse events were observed | rate of vomiting ([2]; Cohorts 5 and 6 together, 4/24): 16% | rate of nausea ([2]; Cohorts 5 and 6 together, 8/24): 33% | half-life [3]: 8 to 11 h | AUC(0-t) [4]: 364 ng·h/mL
